From US10745346B2, “Agonists of protein tyrosine phosphatase SHP-1” (priority 2015, dated 2020)

How the values were obtained:
[1] = target: Recombinant SHP-1 protein (Homo sapiens, UniProt P29350); test: SHP-1 phosphatase activity assay (RediPlate 96 EnzChek Tyrosine Phosphatase Assay kit); format: biochemical; conditions: SC derivatives at 1 μM for 2 hr; recombinant SHP-1 25 ng; control DMSO = 100; mean±SD (N=3)
Protocol: Effects of SC Derivatives on Phosphatase Activity in Recombinant SHP-1 RediPlate 96 EnzChek Tyrosine Phosphatase Assay kit (R-22067) was used for SHP-1 activity assay (Molecular Probes). Recombinant SHP-1 protein (25 ng) was reacted with SC derivatives at 1 μM for 2 hr. Then the SHP-1 phosphatase activity assay was performed according to the user's manual and the absorbance was measured at 465 nm. The control group was DMSO, which functioned as the solvent of the SC derivatives. The values were expressed by mean±SD (N=3).

[2] = test system: PLC5 cells (a hepatocellular carcinoma cell line); test: Cytotoxicity, MTT cell viability assay; format: cell-based; conditions: 72 h exposure
Protocol: PLC5 cells (a hepatocellular carcinoma cell line) were seeded at 5×10^3 cells per well in 96-well plates. Then, cells were exposed to SC derivatives at the indicated doses for 72 h. After that, cells were incubated with MTT (1 mg/ml) (Sigma-Aldrich, St. Louis, Mo.) for 2 h at 37° C. Cell viability was then assessed by measuring the absorbance at 570 nm using a microplate reader.

Sequence of Recombinant SHP-1 protein (P29350 whole entry): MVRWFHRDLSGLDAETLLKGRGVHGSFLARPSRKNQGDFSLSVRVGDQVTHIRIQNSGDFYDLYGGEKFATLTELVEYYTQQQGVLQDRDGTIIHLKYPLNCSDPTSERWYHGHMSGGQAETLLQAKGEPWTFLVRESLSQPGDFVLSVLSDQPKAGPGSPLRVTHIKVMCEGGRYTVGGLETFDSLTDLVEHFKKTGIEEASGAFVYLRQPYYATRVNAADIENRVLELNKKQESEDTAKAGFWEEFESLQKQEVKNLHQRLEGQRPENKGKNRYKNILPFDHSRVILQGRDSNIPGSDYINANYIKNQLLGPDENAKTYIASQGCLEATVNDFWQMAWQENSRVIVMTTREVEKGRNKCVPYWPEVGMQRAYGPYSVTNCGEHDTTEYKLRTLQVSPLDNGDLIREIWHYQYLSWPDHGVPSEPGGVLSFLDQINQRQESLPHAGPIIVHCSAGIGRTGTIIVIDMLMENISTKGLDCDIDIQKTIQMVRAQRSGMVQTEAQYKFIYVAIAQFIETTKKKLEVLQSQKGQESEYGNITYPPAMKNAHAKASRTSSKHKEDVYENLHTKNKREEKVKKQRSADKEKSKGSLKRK

SMILES	SHP-1 Activity (% of control) [1]	IC50 [2] [nM]
Cc1ccc(NC(=O)Nc2ccc(C)c(Oc3ccc(C#N)c(Cl)c3)c2)cc1Oc1ccc(C#N)nc1 [compound 103, 1-(3-(3-chloro-4-cyanophenoxy)-4-methylphenyl)-3-(3-((6-cyanopyridin-3-yl)oxy)51-4-methylphenyl)urea]	123.75 ± 32.58 % of control	190
Cc1ccc(NC(=O)Nc2ccc(C)c(Oc3cnc(C#N)c(F)c3)c2)cc1Oc1cnc(C#N)c(F)c1 [compound 104, 1,3-bis(3-((6-cyano-5-fluoropyridin-3-yl)oxy)-4-methylphenyl)urea]	139.74 ± 4.92 % of control	> 10000
N#Cc1ccc(Oc2ccc(F)c(NC(=O)Nc3ccc(Cl)c(C(F)(F)F)c3)c2)cc1 [compound 105, 1-(4-chloro-3-(trifluoromethyl)phenyl)-3-(5-(4-cyanophenoxy)-2-fluorophenyl)urea]	424.63 ± 10.66 % of control	470
N#Cc1ccc(Oc2ccc(NC(=O)Nc3ccc(Oc4ccc(C#N)cc4)cc3F)c(F)c2)cc1 [compound 106, 1,3-bis(4-(4-cyanophenoxy)-2-fluorophenyl)urea]	147.13 ± 8.51 % of control	> 10000
Cc1ccc(NC(=O)Nc2cccc3ccc(Oc4ccc(C#N)cc4)cc23)cc1Oc1ccc(C#N)cc1 [compound 107, 1-(3-(4-cyanophenoxy)-4-methylphenyl)-3-(7-(4-cyanophenoxy)naphthalen-1-yl)urea]	149.03 ± 14.47 % of control	> 10000
N#Cc1ccc(Oc2ccc(NC(=O)Nc3ccc(Cl)c(C(F)(F)F)c3)c(F)c2)cc1Cl [compound 108, 1-(4-chloro-3-(trifluoromethyl)phenyl)-3-(4-(3-chloro-4-cyanophenoxy)-2-fluorophenyl)urea]	133.11 ± 12.03 % of control	> 10000
N#Cc1ccc(Oc2ccc3cccc(NC(=O)Nc4ccc(Cl)c(C(F)(F)F)c4)c3c2)cc1Cl [compound 109, 1-(4-chloro-3-(trifluoromethyl)phenyl)-3-(7-(3-chloro-4-cyanophenoxy)naphthalen-1-yl)urea]	143.61 ± 5.36 % of control	2070
Cc1ccc(NC(=O)Nc2cc(Oc3ccc(C#N)cc3)ccc2F)cc1Oc1ccc(C#N)nc1 [compound 110, 1-(5-(4-cyanophenoxy)-2-fluorophenyl)-3-(3-((6-cyanopyridin-3-yl)oxy)-4-methylphenyl)urea]	146.29 ± 12.80 % of control	7650
N#Cc1ccc(Oc2cc(NC(=O)Nc3ccc(Cl)c(C(F)(F)F)c3)ccc2F)cc1 [compound 111, 1-(4-chloro-3-(trifluoromethyl)phenyl)-3-(3-(4-cyanophenoxy)-4-fluorophenyl)urea]	156.55 ± 5.99 % of control	240
N#Cc1ccc(Oc2cc(NC(=O)Nc3ccc(F)c(Oc4ccc(C#N)cc4)c3)ccc2F)cc1 [compound 112, 1,3-bis(3-(4-cyanophenoxy)-4-fluorophenyl)urea]	146.18 ± 14.74 % of control	490
Cc1ccc(NC(=O)Nc2ccc(C)c(Oc3ccc(C#N)c4ccccc34)c2)cc1Oc1ccc(C#N)c2ccccc12 [compound 113, 1,3-bis(3-((4-cyanonaphthalen-1-yl)oxy)-4-methylphenyl)urea]	153.49 ± 13.55 % of control	> 10000
Cc1ccc(NC(=O)Nc2ccc(Cl)c(C(F)(F)F)c2)cc1Oc1ccc(C#N)c2ccccc12 [compound 114, 1-(4-chloro-3-(trifluoromethyl)phenyl)-3-(3-((4-cyanonaphthalen-1-yl)oxy)-4-methylphenyl)urea]	156.85 ± 6.04 % of control	760

Further lines, with some results ahead:

SHP-1 Activity (% of control) [1]	SMILES	IC50 [2] [nM]
327.86 ± 34.79 % of control	Cc1ccc(NC(=O)Nc2cc(C(F)(F)F)cc(C(F)(F)F)c2)cc1Oc1ccc(C#N)cc1 [compound 131, 1-(3,5-bis(trifluoromethyl)phenyl)-3-(3-(4-cyanophenoxy)-4-methylphenyl) urea]	230
151.59 ± 9.68 % of control	Cc1ccc(NC(=O)Nc2ccc(F)c(C(F)(F)F)c2)cc1Oc1ccc(C#N)cc1 [compound 132, 1-(3-(4-cyanophenoxy)-4-methylphenyl)-3-(4-fluoro-3-(trifluoromethyl)phenyl)urea]	640
253.18 ± 26.17 % of control	Cc1ccc(NC(=O)Nc2ccc(Cl)c(C(F)(F)F)c2)cc1Oc1ccc(C#N)cc1 [compound 133, 1-(4-chloro-3-(trifluoromethyl)phenyl)-3-(3-(4-cyanophenoxy)-4-methylphenyl)urea]	440
152.29 ± 7.92 % of control	Cc1ccc(NC(=O)Nc2cccc(C(F)(F)F)c2)cc1Oc1ccc(C#N)cc1 [compound 134, 1-(3-(4-cyanophenoxy)-4-methylphenyl)-3-(3-(trifluoromethyl)phenyl)urea]	740
153.32 ± 14.65 % of control	Cc1ccc(NC(=O)Nc2ccc(CC#N)cc2)cc1Oc1ccc(C#N)cc1 [compound 135, 1-(4-(cyanomethyl)phenyl)-3-(3-(4-cyanophenoxy)-4-methylphenyl)urea]	1850
180.35 ± 35 % of control	N#Cc1ccc(Oc2cc(NC(=O)Nc3ccc(F)c(C(F)(F)F)c3)ccc2Cl)cc1 [compound 137, 1-(4-chloro-3-(4-cyanophenoxy)phenyl)-3-(4-fluoro-3-(trifluoromethyl)phenyl)urea]	490
196.54 ± 22.4 % of control	N#Cc1ccc(Oc2cc(NC(=O)Nc3cccc(C(F)(F)F)c3)ccc2Cl)cc1 [compound 138, 1-(4-chloro-3-(4-cyanophenoxy)phenyl)-3-(3-(trifluoromethyl)phenyl)urea]	570
280.62 ± 16.62 % of control	N#Cc1ccc(Oc2cc(NC(=O)Nc3ccc(Cl)c(C(F)(F)F)c3)ccc2Cl)cc1 [compound 139, 1-(4-chloro-3-(4-cyanophenoxy)phenyl)-3-(4-chloro-3-(trifluoromethyl)phenyl)urea]	310
140.81 ± 2.48 % of control	C#Cc1cccc(NC(=O)Nc2ccc(Cl)c(Oc3ccc(C#N)cc3)c2)c1 [compound 140, 1-(4-chloro-3-(4-cyanophenoxy)phenyl)-3-(3-ethynylphenyl)urea]	830
273.26 ± 86.35 % of control	N#Cc1ccc(Oc2ccc(Cl)c(NC(=O)Nc3cc(C(F)(F)F)cc(C(F)(F)F)c3)c2)cc1 [compound 141, 1-(3,5-bis(trifluoromethyl)phenyl)-3-(2-chloro-5-(4-cyanophenoxy)phenyl) urea]	280
249.66 ± 5.81 % of control	N#Cc1ccc(Oc2ccc(Cl)c(NC(=O)Nc3ccc(Cl)c(C(F)(F)F)c3)c2)cc1 [compound 142, 1-(4-chloro-3-(trifluoromethyl)phenyl)-3-(2-chloro-5-(4-cyanophenoxy)phenyl)urea]	450
198.37 ± 32.5 % of control	N#Cc1ccc(Oc2ccc(Cl)c(NC(=O)Nc3ccc(F)c(C(F)(F)F)c3)c2)cc1 [compound 143, 1-(2-chloro-5-(4-cyanophenoxy)phenyl)-3-(4-fluoro-3-(trifluoromethyl)phenyl)urea]	610
159.94 ± 30.14 % of control	C#Cc1cccc(NC(=O)Nc2cc(Oc3ccc(C#N)cc3)ccc2F)c1 [compound 144, 1-(5-(4-cyanophenoxy)-2-fluorophenyl)-3-(3-ethynylphenyl)urea]	1790
168.15 ± 1.97 % of control	N#Cc1ccc(Oc2ccc(F)c(NC(=O)Nc3ccc(F)c(C(F)(F)F)c3)c2)cc1 [compound 145, 1-(5-(4-cyanophenoxy)-2-fluorophenyl)-3-(4-fluoro-3-(trifluoromethyl)phenyl)urea]	850
139.68 ± 6.63 % of control	N#CCc1ccc(NC(=O)Nc2cc(Oc3ccc(C#N)cc3)ccc2F)cc1 [compound 146, 1-(4-(cyanomethyl)phenyl)-3-(5-(4-cyanophenoxy)-2-fluorophenyl)urea]	2590
363.95 ± 18.11 % of control	N#Cc1ccc(Oc2cc(NC(=O)Nc3cc(C(F)(F)F)cc(C(F)(F)F)c3)ccc2Cl)cc1 [compound 148, 1-(3,5-bis(trifluoromethyl)phenyl)-3-(4-chloro-3-(4-cyanophenoxy)phenyl) urea]	220
140.90 ± 6.65 % of control	N#CCc1ccc(NC(=O)Nc2ccc(Cl)c(Oc3ccc(C#N)cc3)c2)cc1 [compound 149, 1-(4-chloro-3-(4-cyanophenoxy)phenyl)-3-(4-(cyanomethyl)phenyl)urea]	1380
129.59 ± 59 % of control	C#Cc1cccc(NC(=O)Nc2ccc(F)c(Oc3ccc(C#N)cc3)c2)c1 [compound 150, 1-(3-(4-cyanophenoxy)-4-fluorophenyl)-3-(3-ethynylphenyl)urea]	2230
136.00 ± 9.09 % of control	N#Cc1ccc(Oc2cc(NC(=O)Nc3cccc(C(F)(F)F)c3)ccc2F)cc1 [compound 151, 1-(3-(4-cyanophenoxy)-4-fluorophenyl)-3-(3-(trifluoromethyl)phenyl)urea]	590
